From patent US10947263B2, “Cyclic dinucleotides as anticancer agents” (BRISTOL-MYERS SQUIBB COMPANY, priority 2017, dated 2021)
Where two headings read alike, the source gives them in different places.

How the values were obtained:
[1] = test system: STING / IRF pathway in THP1-Dual cells; experiment: STING THP1 Reporter Assay, IRF pathway (secreted Lucia luciferase, QUANTI-Luc); format: cell-based; conditions: 10% human plasma, 100% activation = 100 μM cGAMP, luciferase readout, read-out: THP1 Reporter Assays EC50 IRF3
Text: (§1) THP1-Dual™ cells were derived from the human THP-1 monocyte cell line by stable integration of two inducible reporter constructs. To this end, THP1-Dual™ cells allow the simultaneous study of the […], by monitoring the activity of SEAP, and the IRF pathway by assessing the activity of a secreted luciferase (Lucia). Both reporter proteins are readily measurable in the cell culture supernatant when using QUANTI-Blue™, a SEAP detection reagent, and QUANTI-Luc™, a luciferase detection reagent.
(§2) THP1-Dual™ cells induce the activation of NF-κB in response to STING agonists. They also trigger the IRF pathway upon stimulation with STING agonists, such as cGAMP. Here, the THP-1-Dual cells were used to assess STING binders for function on the cellular level.
(§3) Serial dilutions of compounds in DMSO were added to low volume 384 well plates at 100 nl/well using an ECHO acoustic dispenser (Labcyte, model 550) to achieve final starting concentration of 100 μM in cell suspension. THP-1 Dual™ STING reporter cells (Invivogen, Dual cells cat #THPD-nfis) were added to the plates with compounds at 15,000 cells in 10 μL per well in RPMI media (Gibco, cat #11875) containing 10% human plasma in a low volume 384-well black wall clear bottom tissue culture plate (Corning, cat #3542) for SEAP assay and low volume solid white plate (Corning, cat #3826) for luciferase assay. One column of the plate was reserved for treatment with cGAMP at 100 μM for 100% activation calculation and one column for no treatment (DMSO only) for baseline activation. Plates were then incubated in 37 OC incubator at 5% CO2 for 20 hours.
(§4) In the SEAP assay, […] 2× QuantiBlue (Invivogen, cat #Rep-qb2) is added to 384 well black plates seeded with THP1 cells and incubated at 37° C. for 2 hours. Plates were read on the Envision (Perkin Elmer) at 620 nm wavelength (OD620). In the luciferase assay, 5 μl of Quantiluc (Invivogen, Rep-qlc2) is added to white 384 well plates seeded with THP1 cells and read at 5 minutes on the Envision (Perkin Elmer) using a luminescence protocol (RLU). For both cell lines, 100% activation was determined by value (RLU) of THP-1 Dual STING cells stimulated with 100 μM cGAMP (Invivogen, cat #TLRL-NACGA23-5).

[2] = test system: STING / NF-κB pathway in THP1-Dual cells; experiment: STING THP1 Reporter Assay, NF-κB pathway (SEAP, QUANTI-Blue); format: cell-based; conditions: 10% human plasma, 100% activation = 100 μM cGAMP, SEAP readout, read-out: THP1 Reporter Assays EC50 NFkB
Text: as §1, §2, §3, §4

[3] = target: T1, STING WT (His-TVMV-S-hSTING(155-341)-H232R) (Homo sapiens, UniProt Q86WV6, H232R); experiment: STING HTRF binding assay (time resolved FRET competition), STING WT; conditions: 20 nM His-tagged STING WT cytoplasmic domain, 200 nM fluorescein-labeled cGAMP analog probe, one hour; read-out: HTRF Binding Assays IC50 WT
T1 construct: STING WT: His-TVMV-S-hSTING(155-341)-H232R
Procedure: (§5) A time resolved FRET-based competition binding assay was used to assess test article binding to STING WT and STING AQ. His-tagged STING cytoplasmic domain (WT or AQ) at a concentration of 20 nM was incubated with 2.5 nM Tb-labeled anti-His antibody, test compound, and fluorescein-labeled cGAMP analog probe (BioLog cat. no. C195) at a concentration of 200 nM (STING WT) or 40 nM (STING AQ) in PBS containing 0.005% Tween-20 and 0.1% BSA for one hour. Fluorescence at 495 nm and 520 nm was measured using an EnVision microplate reader to quantify FRET between Tb-labeled anti-His antibody and fluorescein-labeled probe. Background was defined as the signal obtained in the absence of STING protein, and background subtracted FRET ratios were normalized to the maximum signal obtained in the absence of test compound. These values were converted to a percent inhibition. Percent inhibition was determined for test compounds at 11 concentrations. The IC50, defined as the concentration of competing test compound needed to reduce specific binding of the probe by 50%, was calculated using the 4 parameter logistic equation to fit the data
STING WT: His-TVMV-S-hSTING(155-341)-H232R • […] […] […] […] LRQEEKEEV (SEQ ID NO:1)

[4] = target: T2, STING AQ (His-TVMV-S-hSTING(155-341)-G230A-R293Q) (Homo sapiens, UniProt Q86WV6, G230A/H232R/R293Q); experiment: STING HTRF binding assay (time resolved FRET competition), STING AQ; conditions: 20 nM His-tagged STING AQ cytoplasmic domain, 40 nM fluorescein-labeled cGAMP analog probe, one hour; read-out: HTRF Binding Assays IC50 AQ
T2 construct: STING AQ: His-TVMV-S-hSTING(155-341)-G230A-R293Q
Procedure: as §5
STING AQ: His-TVMV-S-hSTING(155-341)-G230A-R293Q • […] […] […] […] LRQEEKEEV (SEQ ID NO:2)

T2 sequence (Q86WV6 with tags, fused parts or gaps G230A/H232R/R293Q): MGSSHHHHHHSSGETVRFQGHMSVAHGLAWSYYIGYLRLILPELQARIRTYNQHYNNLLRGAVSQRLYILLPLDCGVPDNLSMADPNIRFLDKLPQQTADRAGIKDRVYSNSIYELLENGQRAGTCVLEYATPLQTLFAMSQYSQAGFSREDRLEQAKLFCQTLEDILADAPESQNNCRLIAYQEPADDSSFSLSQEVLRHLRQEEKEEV
T1 sequence (Q86WV6 with tags, fused parts or gaps H232R): as the sequence (Q86WV6 with tags, fused parts or gaps G230A/H232R/R293Q) above, with A99G, Q162R counted along it

| SMILES | EC50 ([1]; 20 hours) [nM] | EC50 ([2]; 20 hours) [nM] | IC50 [3] [nM] | IC50 [4] [nM] | EC50 ([1]; Homo sapiens, THP1-Dual, 20 h) [nM] | EC50 ([2]; Homo sapiens, THP1-Dual, 20 h) [nM] |
| --- | --- | --- | --- | --- | --- | --- |
| Nc1ncnc2c1ncn2[C@@H]1O[C@@H]2COP(=O)(S)O[C@@H]3[C@H](O)[C@@H](COP(=O)(S)O[C@H]2[C@H]1F)O[C@H]3n1nnc2c(C(F)(F)F)cccc21 (single isomer, unassigned) [Example 9-3] | 69400 | > 100000 | 900 | 40 | – | – |
| Nc1ncnc2c1ncn2[C@@H]1O[C@@H]2COP(=O)(S)O[C@@H]3[C@H](F)[C@@H](COP(=O)(S)O[C@H]2[C@H]1F)O[C@H]3n1nnc2c([N+](=O)[O-])cccc21 (single isomer, unassigned) [Example 11-3] | 4000 | 9700 | 50 | 10 | – | – |
| Nc1ncnc2c1ncn2[C@@H]1O[C@@H]2COP(=O)(S)O[C@@H]3[C@H](F)[C@@H](COP(=O)(S)O[C@H]2[C@H]1F)O[C@H]3n1nnc2c([N+](=O)[O-])cccc21 (single isomer, unassigned) [Example 11-4] | 21100 | 34600 | 150 | 20 | – | – |
| NC(=O)c1cccc2c1nnn2[C@@H]1O[C@@H]2COP(=O)(O)O[C@H]3[C@@H](F)[C@H](n4cnc5c(N)ncnc54)O[C@@H]3COP(=O)(S)O[C@@H]1[C@@H]2F (single isomer, unassigned) [Example 6-1] | 1400 | 4100 | 20 | 10 | – | – |
| NC(=O)c1cccc2c1nnn2[C@@H]1O[C@@H]2COP(=O)(S)O[C@H]3[C@@H](F)[C@H](n4cnc5c(N)ncnc54)O[C@@H]3COP(=O)(S)O[C@@H]1[C@@H]2O (single isomer, unassigned) [Example 8-1] | 1000 | 2400 | 10 | 10 | – | – |
| Nc1ncnc2c1ncn2[C@@H]1O[C@@H]2COP(=O)(O)O[C@@H]3[C@H](O)[C@@H](COP(=O)(O)O[C@H]2[C@H]1O)O[C@H]3n1nnc2c([N+](=O)[O-])cccc21 [Example 2, (1R,6R,8R,9R,10S,15R,17R, 18R)-8-(6-amino-9H-purin-9-yl)-3,9,12,18-tetrahydroxy-17-(4-nitro-1H-1,2,3-benzo-triazol-1-yl)-2,4,7,11,13,16-hexaoxa-3λ^5,12λ^5-diphospha-tricyclo[13.2.1.0^6,^10]octa-decane-3,12-dione] | – | – | 160 | 5 | 53000 | 80000 |
| NC(=O)c1cccc2c1nnn2[C@@H]1O[C@@H]2COP(=O)(O)O[C@H]3[C@@H](F)[C@H](n4cnc5c(N)ncnc54)O[C@@H]3COP(=O)(S)O[C@@H]1[C@@H]2O (single isomer, unassigned) [Example 4-1] | 4500 | 12000 | 60 | 10 | – | – |
| Nc1ncnc2c1ncn2[C@@H]1O[C@@H]2COP(=O)(S)O[C@@H]3[C@H](O)[C@@H](COP(=O)(S)O[C@H]2[C@H]1F)O[C@H]3n1nnc2c(C(F)(F)F)cccc21 (single isomer, unassigned) [Example 9-2] | 7900 | 15700 | 130 | 10 | – | – |
| Nc1ncnc2c1ncn2[C@@H]1O[C@@H]2COP(=O)(S)O[C@@H]3[C@H](O)[C@@H](COP(=O)(O)O[C@H]2[C@H]1F)O[C@H]3n1nnc2c([N+](=O)[O-])cccc21 (single isomer, unassigned) [Example 5-1] | – | – | 10 | 10 | 3500 | 7600 |
| NC(=O)c1cccc2c1nnn2[C@@H]1O[C@@H]2COP(=O)(O)O[C@H]3[C@@H](F)[C@H](n4cnc5c(N)ncnc54)O[C@@H]3COP(=O)(O)O[C@@H]1[C@@H]2O [Example 1, 1-[(1R,6R,8R,9R,10R,15R,17R,18R)-8-(6-amino-9H-purin-9-yl)-9-fluoro-3,12,18-trihydroxy-3,12-dioxo-2,4,7,11,13,16-hexaoxa-3λ^5,12λ^5-diphosphatricyclo[13.2.1.0^6,10]octadecan-17-yl]-1H-1,2,3-benzotriazole-4-carboxamide] | – | – | 10 | 3 | 1500 | 3200 |
| Nc1ncnc2c1ncn2[C@@H]1O[C@@H]2COP(=O)(S)O[C@@H]3[C@H](O)[C@@H](COP(=O)(O)O[C@H]2[C@H]1F)O[C@H]3n1nnc2c([N+](=O)[O-])cccc21 (single isomer, unassigned) [Example 5-2] | 5600 | 13000 | – | 10 | – | – |

More lines, now with the values ahead:

| EC50 ([1]; 20 hours) [nM] | EC50 ([2]; 20 hours) [nM] | IC50 [3] [nM] | IC50 [4] [nM] | EC50 ([1]; Homo sapiens, THP1-Dual, 20 h) [nM] | EC50 ([2]; Homo sapiens, THP1-Dual, 20 h) [nM] | SMILES |
| --- | --- | --- | --- | --- | --- | --- |
| 3200 | 10000 | 70 | 10 | – | – | C=C1[C@H]2OP(=O)(S)OC[C@H]3O[C@@H](n4cnc5c(N)ncnc54)[C@H](F)[C@@H]3OP(=O)(S)OC[C@H]1O[C@H]2n1nnc2c(C(N)=O)cccc21 (single isomer, unassigned) [Example 22-2] |
| 63400 | 96800 | 1750 | 50 | – | – | O=[N+]([O-])c1cccc2c1nnn2[C@@H]1O[C@@H]2COP(=O)(S)O[C@H]3[C@@H](F)[C@H](n4cnc5c4ncn4ccnc54)O[C@@H]3COP(=O)(S)O[C@@H]1[C@@H]2O (single isomer, unassigned) [Example 15-2] |
| 1200 | 4900 | 70 | 10 | – | – | Nc1ncnc2c1ncn2[C@@H]1O[C@@H]2COP(=O)(S)O[C@@H]3[C@H](F)[C@@H](COP(=O)(S)O[C@H]2[C@H]1F)O[C@H]3n1nnc2c(N)cccc21 (single isomer, unassigned) [Example 13-1] |
| 12700 | 73900 | 210 | 10 | – | – | NC(=O)c1cccc2c1nnn2[C@@H]1O[C@@H]2COP(=O)(O)O[C@H]3[C@@H](F)[C@H](n4cnc5c4ncn4ccnc54)O[C@@H]3COP(=O)(S)O[C@@H]1[C@@H]2F (single isomer, unassigned) [Example 16-2] |
| – | – | 1700 | – | > 100000 | > 100000 | Nc1ncnc2c1ncn2[C@@H]1O[C@@H]2COP(=O)(O)O[C@@H]3[C@H](O)[C@@H](COP(=O)(O)O[C@H]2[C@H]1O)O[C@H]3n1nnc2c(N)cccc21 [Example 21, (1R,6R,8R,9R,10S,15R,17R,18R)-17-(4-amino-1H-1,2,3-benzotriazol-1-yl)-8-(6-amino-9H-purin-9-yl)-3,9,12,18-tetrahydroxy-2,4,7,11,13,16-hexaoxa-3λ^5,12λ^5-diphosphatricyclo[13.2.1.0^6,10]octadecane-3,12-dione] |
